The assay deals with T1, human GLP-1R receptor (Homo sapiens, UniProt P43220).
T1 construct: expressed in transfected cells
The assay can be described thus: GLP-1R low expression cell assay (cAMP TR-FRET, CHO-K1_hGLP-1Rlow_clone10 cells). The class given is cell-based. Particulars: for EC50: cAMP TR-FRET, 30 min at 25° C.; for Emax: maximum activation relative to control GLP-1 peptide agonist. The essentials: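 CHO-K1 cells stably expressing low surface human GLP-1R (clone10), 1,000 cells/well, exposed to 10-point 3-fold compound dilutions for 30 min at 25 °C. cAMP measured by TR-FRET (Eu-cAMP tracer/ULight-anti-cAMP, 15 min). EC50 from Hill fit of duplicate percent activation relative to a parallel GLP-1 control agonist.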

T1 sequence (P43220 24-463): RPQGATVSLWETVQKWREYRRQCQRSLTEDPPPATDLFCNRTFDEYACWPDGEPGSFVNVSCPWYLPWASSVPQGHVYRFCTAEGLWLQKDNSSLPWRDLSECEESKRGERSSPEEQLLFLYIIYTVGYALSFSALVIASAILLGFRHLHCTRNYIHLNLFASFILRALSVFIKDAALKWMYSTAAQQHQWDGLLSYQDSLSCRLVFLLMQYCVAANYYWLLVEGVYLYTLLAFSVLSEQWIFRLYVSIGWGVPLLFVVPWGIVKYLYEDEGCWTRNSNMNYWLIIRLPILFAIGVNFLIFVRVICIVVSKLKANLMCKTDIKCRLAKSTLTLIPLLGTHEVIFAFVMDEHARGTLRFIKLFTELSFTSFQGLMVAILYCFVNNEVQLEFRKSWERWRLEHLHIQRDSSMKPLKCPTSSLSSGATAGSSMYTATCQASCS

`Cn1c(CN2CCC(c3cccc(OCc4ccc(Cl)cc4F)c3)CC2)nc2c(OC(F)F)cc(N3CC(=O)NS3(=O)=O)cc21` [Compound 281, 5-(2-((4-(3-((4-Chloro-2-fluorobenzyl)oxy)phenyl)piperidin-1-yl)methyl)-4-(difluoromethoxy)-1-methyl-1H-benzo[d]imidazol-6-yl)-1,2,5-thiadiazolidin-3-one 1,1-dioxide] registered a concentration giving a half-maximal response (EC50) greater than 1000 nM and a maximum response (Emax) of 50 to 85%.
For `Cn1c(CN2CCC(c3nc(OCc4ccc(Cl)cc4F)ccc3F)CC2)nc2c(OC(F)F)cc(C(=O)O)cc21` [Compound 243, 2-((4-(6-((4-Chloro-2-fluorobenzyl)oxy)-3-fluoropyridin-2-yl)piperidin-1-yl)methyl)-4-(difluoromethoxy)-1-methyl-1H-benzo[d]imidazole-6-carboxylic acid] the same measures were 100 to 1000 nM and 50 to 85%.
In turn, `Cn1c(CN2CCC(c3cccc(OCc4ccc(C#N)cc4F)n3)CC2)nc2c3c(c(C(=O)O)cc21)OCCO3` [Compound 289, 2-((4-(6-((4-Cyano-2-fluorobenzyl)oxy)pyridin-2-yl)piperidin-1-yl)methyl)-3-methyl-7,8-dihydro-3H-[1,4]dioxino[2′,3′:3,4]benzo[1,2-d]imidazole-5-carboxylic acid] had a concentration for a half-maximal effect (EC50) of 100 to 1000 nM and a maximal effect (Emax) greater than 85%.
For `Cn1c(CN2CCC(c3cccc4c3O[C@@H](c3ccc(C#N)cc3F)CO4)CC2)nc2c(OC(F)F)cc(C(=O)O)cc21` [Compound 123, (S)-2-((4-(3-(4-Cyano-2-fluorophenyl)-2,3-dihydrobenzo[b][1,4]dioxin-5-yl)piperidin-1-yl)methyl)-4-(difluoromethoxy)-1-methyl-1H-benzo[d]imidazole-6-carboxylic acid], in that order: 10 to 100 nM and greater than 85%.
In turn, `Cn1c(CN2CCC(c3cccc(Cl)c3OCc3ccc(C#N)cc3F)CC2)nc2c(OC(F)F)cc(C(=O)O)cc21` [Compound 138, 2-((4-(3-Chloro-2-((4-cyano-2-fluorobenzyl)oxy)phenyl)piperidin-1-yl)methyl)-4-(difluoromethoxy)-1-methyl-1H-benzo[d]imidazole-6-carboxylic acid] registered an EC50 greater than 1000 nM and an Emax of 25 to 50%.
For `Cn1c(CN2CCC(c3nc(OCc4ccc(Cl)cc4F)ncc3F)CC2)nc2c(OC(F)F)cc(C(=O)O)cc21` [Compound 375, 2-((4-(2-((4-Chloro-2-fluorobenzyl)oxy)-5-fluoropyrimidin-4-yl)piperidin-1-yl)methyl)-4-(difluoromethoxy)-1-methyl-1H-benzo[d]imidazole-6-carboxylic acid] the same measures were 100 to 1000 nM and greater than 85%.
Turning to `Cn1c(CN2CCC(c3cccc(OCc4ccc(C#N)cc4F)n3)CC2)nc2c(OC(C)(F)F)cc(C(=O)O)cc21` [Compound 180, 2-((4-(6-((4-Cyano-2-fluorobenzyl)oxy)pyridin-2-yl)piperidin-1-yl)methyl)-4-(1,1-difluoroethoxy)-1-methyl-1H-benzo[d]imidazole-6-carboxylic acid], the 50% effective concentration (EC50) was in the range of 10 to 100 nM and the Emax was greater than 85%.
For `Cn1c(CN2CCC(c3cccc(OCc4ccc(Cl)cc4F)n3)CC2)nc2c(OCC3CC3)cc(C(=O)O)cc21` [Compound 357, 2-((4-(6-((4-Chloro-2-fluorobenzyl)oxy)pyridin-2-yl)piperidin-1-yl)methyl)-4-(cyclopropylmethoxy)-1-methyl-1H-benzo[d]imidazole-6-carboxylic acid] the same measures were less than 10 nM and greater than 85%.
Compound `N#Cc1ccc(COc2cccc(C3CCN(Cc4nc5cnc(C(=O)O)cc5n4C[C@@H]4CCO4)CC3)n2)c(F)c1` [Compound 378, (S)-2-((4-(6-((4-Cyano-2-fluorobenzyl)oxy)pyridin-2-yl)piperidin-1-yl)methyl)-1-(oxetan-2-ylmethyl)-1H-imidazo[4,5-c]pyridine-6-carboxylic acid] displayed an EC50 of 10 to 100 nM and an Emax greater than 85%.
For `CCn1c(CN2CCC(c3cccc4c3O[C@@](C)(c3ccc(Cl)cn3)O4)CC2)nc2c(OC(C)C)cc(C(=O)O)cc21` [Compound 88, (S)-2-((4-(2-(5-Chloropyridin-2-yl)-2-methylbenzo[d][1,3]dioxol-4-yl)piperidin-1-yl)methyl)-1-ethyl-4-isopropoxy-1H-benzo[d]imidazole-6-carboxylic acid], in that order: 10 to 100 nM and greater than 85%.
In the case of `CNC(=O)c1cc(OC)c2nc(CN3CCC(c4cccc(OCc5ccc(Cl)cc5F)n4)CC3)n(C)c2c1` [Compound 280, 2-((4-(6-((4-chloro-2-fluorobenzyl)oxy)pyridin-2-yl)piperidin-1-yl)methyl)-4-methoxy-N, 1-dimethyl-1H-benzo[d]imidazole-6-carboxamide], the 50% effective concentration (EC50) is greater than 1000 nM and the Emax fell in the range of 50 to 85%.
For `Cn1c(CN2CCC(c3cccc(OCc4ccc(Cl)cc4F)n3)CC2)nc2c(OCC3(C#N)CC3)cc(C(=O)O)cc21` [Compound 214, 2-((4-(6-((4-Chloro-2-fluorobenzyl)oxy)pyridin-2-yl)piperidin-1-yl)methyl)-4-((1-cyanocyclopropyl)methoxy)-1-methyl-1H-benzo[d]imidazole-6-carboxylic acid] the same measures were 100 to 1000 nM and 50 to 85%.
For `COc1cc(C(=O)O)cc2c1nc(N(C)[C@H]1CC[C@@H](c3cccc4c3O[C@@](C)(c3ccc(Cl)cn3)O4)CC1)n2C[C@@H]1CCO1` [Compound 79, 2-(((1R,4R)-4-((S)-2-(5-chloropyridin-2-yl)-2-methylbenzo[d][1,3]dioxol-4-yl)cyclohexyl)(methyl)amino)-4-methoxy-1-(((S)-oxetan-2-yl)methyl)-1H-benzo[d]imidazole-6-carboxylic acid] the same measures were 100 to 1000 nM and greater than 85%.
For `COc1cc(C(=O)O)cc2c1nc(CN1CCC(c3cccc(OCc4ccc(C#N)cc4F)n3)CC1)n2C(F)F` [Compound 147, 2-((4-(6-((4-Cyano-2-fluorobenzyl)oxy)pyridin-2-yl)piperidin-1-yl)methyl)-1-(difluoromethyl)-4-methoxy-1H-benzo[d]imidazole-6-carboxylic acid], in that order: 100 to 1000 nM and greater than 85%.
On to `Cn1c(CN2CCN(c3cccc(OCc4ccc(Cl)cc4F)n3)CC2)nc2c(OC(F)F)cc(C(=O)O)cc21` [Compound 150, 2-((4-(6-((4-Chloro-2-fluorobenzyl)oxy)pyridin-2-yl)piperazin-1-yl)methyl)-4-(difluoromethoxy)-1-methyl-1H-benzo[d]imidazole-6-carboxylic acid], for which the EC50 is 10 to 100 nM and the Emax is greater than 85%.
With `CC(F)(F)c1cc(C(=O)O)cc2c1nc(CN1CCC(c3cccc4c3O[C@@](C)(c3ccc(Cl)cn3)O4)CC1)n2C[C@@H]1CCO1` [Compound 386, 2-((4-((S)-2-(5-Chloropyridin-2-yl)-2-methylbenzo[d][1,3]dioxol-4-yl)piperidin-1-yl)methyl)-4-(1,1-difluoroethyl)-1-(((S)-oxetan-2-yl)methyl)-1H-benzo[d]imidazole-6-carboxylic acid], the EC50 lay in the range of 10 to 100 nM and the Emax is greater than 85%.
For `[2H]C([2H])([2H])Oc1cc(C(=O)O)cc2c1nc(CN1CCC(c3cccc(OCc4ccc(C#N)cc4F)n3)CC1)n2C` [Compound 349, 2-((4-(6-((4-Cyano-2-fluorobenzyl)oxy)pyridin-2-yl)piperidin-1-yl)methyl)-4-(methoxy-d3)-1-methyl-1H-benzo[d]imidazole-6-carboxylic acid] the same measures were less than 10 nM and greater than 85%.
For `Cn1c(CN2CCC(c3cccnc3OCc3ccc(Cl)cc3F)CC2)nc2c(OC(F)F)cc(C(=O)O)cc21` [Compound 364, 2-((4-(2-((4-Chloro-2-fluorobenzyl)oxy)pyridin-3-yl)piperidin-1-yl)methyl)-4-(difluoromethoxy)-1-methyl-1H-benzo[d]imidazole-6-carboxylic acid] the same measures were 10 to 100 nM and greater than 85%.
In the case of `COc1c(C(=O)O)ccc2c1nc(CN1CCC(c3cccc(OCc4ccc(Cl)cc4F)n3)CC1)n2C` [Compound 187, 2-((4-(6-((4-Chloro-2-fluorobenzyl)oxy)pyridin-2-yl)piperidin-1-yl)methyl)-4-methoxy-1-methyl-1H-benzo[d]imidazole-5-carboxylic acid], the EC50 is greater than 1000 nM and the Emax is less than 25%.
Regarding `CCOc1cc(-c2cc(=O)[nH]o2)cc2c1nc(CN1CCC(c3cccc(OCc4ccc(C#N)cc4F)n3)CC1)n2C` [Compound 384, 4-(((6-(1-((4-Ethoxy-1-methyl-6-(3-oxo-2,3-dihydroisoxazol-5-yl)-1H-benzo[d]imidazol-2-yl)methyl)piperidin-4-yl)pyridin-2-yl)oxy)methyl)-3-fluorobenzonitrile], the EC50 was in the range of 10 to 100 nM and the Emax is greater than 85%.
The compound `N#Cc1ccc(COc2cccc(C3CCN(Cc4nc5c(OC(F)F)cc(C(=O)O)cc5n4CC4(C#N)CC4)CC3)n2)c(F)c1` [Compound 105, 2-((4-(6-((4-Cyano-2-fluorobenzyl)oxy)pyridin-2-yl)piperidin-1-yl)methyl)-1-((1-cyanocyclopropyl)methyl)-4-(difluoromethoxy)-1H-benzo[d]imidazole-6-carboxylic acid] came in with an EC50 of less than 10 nM and an Emax greater than 85%.
For `CCOc1cc(C(=O)O)cc2c1nc(CN1CCC(c3cccc4c3O[C@@H](c3ccc(C#N)cc3F)CO4)CC1)n2C` [Compound 287, (S)-2-((4-(3-(4-Cyano-2-fluorophenyl)-2,3-dihydrobenzo[b][1,4]dioxin-5-yl)piperidin-1-yl)methyl)-4-ethoxy-1-methyl-1H-benzo[d]imidazole-6-carboxylic acid] the same measures were greater than 1000 nM and greater than 85%.

A word on the EC50: it is the midpoint of the concentration-response curve. One may read the Emax as the size of the effect at its maximum, as opposed to the concentration needed.

(Values after patent US20240368120A1 (Terns Pharmaceuticals, Inc., priority 2023, published 2024).)
